Assay results reported in patent publication EP4588995A1, “IMPROVEMENT OF SOLUBILITY OF CHOLINE CARBOXYLATES IN BASE OILS” (OLEON NV, priority 2024, dated 2025).

Test: Resistivity of blends according to standard ASTM D1169
Type: physicochemical
Procedure: The resistivity ability of blends was evaluated according to the standard ASTM […].

- Resistivity: 12.00 10^10 Ωcm
Structure (SMILES): CCCCCCCC/C=C\CCCCCCCC(=O)OCC(COC(=O)CCCCCCC/C=C\CCCCCCCC)(COC(=O)CCCCCCC/C=C\CCCCCCCC)COC(=O)CCCCCCC/C=C\CCCCCCCC [Pentaerythritol tetraoleate]
